Here are results for six molecules from patent US5504097A, “N-hydroxyureas as 5-lipoxygenase inhibitors and inhibitors of oxidative modification of low density lipoprotein” (American Home Products Corporation, priority 1995, dated 1996).

The structures appear in SMILES notation.

The subject of experiment [1] is Lipoxygenase. Put plainly: Ex-Vivo Measurement of Lipoxygenase Inhibition in Orally Dosed Rats (LTB4 in A23187-stimulated blood). The following applies: 10 mg/kg, p.o. Also noted: species or system Male Sprague Dawley rats. The procedure:
2. Ex-Vivo Measurement of Lipoxygenase Inhibition in Orally Dosed Rats
After an interval of 3 or 6 hours, the rats were anesthetized with metofane (n=4/group) and blood collected in heparinized tubes. White blood cell counts and differentials were made. One ml of blood from each animal was placed in a 5 ml plastic tube in a shaker bath at 37° C. A23187 at a final concentration of 10 μM was added to the blood and the blood vortexed and incubated for 15 min at 37° C. with gentle shaking. Incubation was terminated by vortexing sample and centrifuging immediately at 1200× G for 15 min at 4° C. The plasma was transferred to 15 ml plastic tubes each containing 8 ml of methanol to precipitate protein followed by vortexing. The samples were stored at -70° C. overnight and the next day the samples were centrifuged at 800× G for 15 min to pellet the precipitate. The samples were dried in a Savant SpeedVac Concentrator Model SVC 200H and reconstituted to the original volume with cold RIA or ELISA buffer. The reconstituted samples were stored at -70° C. until assayed. The assay for LTB4 was performed according to the directions of the ^3 H!RIA kit or ELISA kit (Seragen). The total metabolite level in 1 ml of blood is calculated and reported as ng/10^6 neutrophils. Significance is determined by a one-way analysis of variance with LSD comparisons to control (p≤0.05).

The test system of experiment [2] is Low Density Lipoprotein. Put plainly: Inhibition of Copper Ion Mediated Oxidation of Low Density Lipoprotein. It is filed as biochemical. As to conditions: Cu^+2 mediated oxidation of rabbit or monkey LDL. The procedure: 5. Inhibition of Copper Ion Mediated Oxidation of Low Density Lipoprotein
In this in vitro assay, the inhibition of Cu^+2 mediated oxidation of rabbit or monkey LDL by an invention compound is determined spectrophotometricallly. Oxidation of LDL results in the formation of LDL-diene which absorbs light at 532 nm. Inhibition of oxidation of LDL leads to a decrease in absorbance at 532 nm.
Rabbit or monkey LDL is prepared according to the procedures of Havel, Eder and Gragdon, "The Distribution and Chemical Composition of Ultracentrifugally Separated Lipoproteins in Human Serum,: J, Clin. Invest. 34, 1345-1353 (1955) and Parhtasarathy, Wieland and Steriberg, "A Role for Endothelial Cell Lipoxygenase in the Oxidative Modification of Low Density Lipoprotein," Proc, Natl. Acad. Sci. USA 86, 1046-1050 (1989). Test compound solutions are prepared by dissolving the invention compounds in ethanol at concentrations up to 248 μM. The medium used is Dulbecco's phosphate buffered saline containing 0.5 mg/ml bovine serum albumin. For standards, 0 to 10 μl of an aqueous solution of 1,1,3,3-tetraethoxypropane (1 μmol/ml H2 O) in 4.1 ml of medium is used.
Test compound solution (100 μl) is added to 4 ml of medium in incubation tubes. To each tube is added 10 μl of LDL solution and 25 μl of aqueous copper sulfate solution (1.32 mg/ml H2 O ). The tubes are incubated at 37° C. for 90 minutes and the oxidation reaction quenched by addition of 1 ml of thiobarbituric acid solution (0.67% in 50% acetic acid). The tubes are heated at 90° C. for 1 hour, then chilled in an ice bath and the chromophore extracted into 2 ml of n-butanol. Absorbence is read at 532 nm and the results are reported as nmols of malondialdehyde equivalents.
Significant differences (p<0.05) are determined by the Dunnett T-test or by the Student-Newman-Keuls Test for significant differences between means. The assay is conducted using several concentrations I! of the inhibitor test compounds. The LDL solution concentrations at different experiments were either 1.5 mg/ml, 2.5 mg/ml or 10.3 mg/ml. The IC50 is determined by non-linear regression, plotting log I! vs. % inhibition. (Reference: K. Yagi, Biochemical Medicine 15, 212-216 (1976)).

Experiment [3] has as its target T1, 5-Lipoxygenase (Homo sapiens, UniProt P09917).
T1 construct: from tissue; host or cells: whole blood of male human donors (endogenous enzyme of the leukocytes)
T1 sequence (P09917 1-674): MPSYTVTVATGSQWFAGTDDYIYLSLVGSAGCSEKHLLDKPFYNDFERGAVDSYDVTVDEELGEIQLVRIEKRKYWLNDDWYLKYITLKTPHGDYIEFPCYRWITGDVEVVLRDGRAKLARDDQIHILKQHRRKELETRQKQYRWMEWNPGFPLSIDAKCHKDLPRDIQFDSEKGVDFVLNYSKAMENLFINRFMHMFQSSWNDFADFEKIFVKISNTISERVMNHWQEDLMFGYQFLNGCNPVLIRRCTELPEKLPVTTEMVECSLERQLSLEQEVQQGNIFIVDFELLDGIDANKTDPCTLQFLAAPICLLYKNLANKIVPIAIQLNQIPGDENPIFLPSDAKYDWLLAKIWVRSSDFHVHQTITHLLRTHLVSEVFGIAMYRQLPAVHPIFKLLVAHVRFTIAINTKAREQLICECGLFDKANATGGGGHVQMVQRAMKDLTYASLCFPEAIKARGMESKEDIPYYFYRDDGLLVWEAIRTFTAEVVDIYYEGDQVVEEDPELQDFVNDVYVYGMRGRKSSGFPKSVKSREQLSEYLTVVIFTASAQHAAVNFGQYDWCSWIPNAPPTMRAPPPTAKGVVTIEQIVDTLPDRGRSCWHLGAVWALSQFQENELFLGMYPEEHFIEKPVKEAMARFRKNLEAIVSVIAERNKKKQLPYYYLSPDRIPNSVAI
Put plainly: Inhibition of 5-Lipoxygenase in Human Whole Blood (LTB4, calcium ionophore A23187). It is filed as cell-based. The procedure:
1. Inhibition of 5-Lipoxygenase in Human Whole Blood
Blood is obtained in 50-100 ml quantities from male donors. White blood cell counts and differentials are made. Two ml of blood are placed in a 15 ml polypropylene test tube. Test compounds are solubilized in dimethylsulfoxide and diluted in 1:10 in 10% bovine serum albumin in phosphate buffered saline, pH 7.4 resulting in a final dimethylsulfoxide concentration of 0.1% in the blood. Then, solutions of test compounds are added to the blood in a shaking water bath at 37° C. for 10 minutes prior to the addition of 30 μM calcium ionophore (A23187, Sigma). After ionophore administration, whole blood samples are mixed and incubated for 20 minutes at 37° C. in a shaking water bath. Incubation is terminated by placing samples in an ice bath and immediately adding ethylene glycol-bis-(β-aminoethyl ether)-N, N,N',N'-tetraacetic acid (10 mM). Samples are mixed and centrifuged at 1200× g for 15 minutes at 4° C. Preparation of samples for evaluation by RIA or ELISA is carried out by the following protocol. Plasma is removed from sample tubes, placed in 15 ml polypropylene test tubes containing 8 ml methanol, and then vortexed to precipitate protein. Samples are stored at -70° C. overnight. The next day, samples are centrifuged at 200× g for 15 minutes at 4° C. to pellet the precipitate. Samples are dried in a Savant SpeedVac Concentrator, Model SVC 200H, reconstituted to original volume with ice cold RIA or ELISA buffer, and stored at -70° C. until assayed. The assay for eicosanoids (LTB4, T×B2, and PGE2) is performed as described by the manufacturer of the ^3 H!-RIA kit or ELISA kit (LTB4 -Amersham, T×B2 and PGE2 -Caymen Chemical).
The total eicosanoid level in 2 ml of blood is calculated and reported as ng/10^6 neutrophils. Significance is determined by a one-way analysis of variance with least significant difference (LSD) comparisons to control (p≤0.05) and IC50 's (μM) are determined by regression analysis (Finney, 1978). Drug effects are expressed as percent change from control values.

Experiment [4] relates to LTB4. Description: Reverse Passive Arthus Reaction (pleurisy), LTB4 in pleural exudate. As to conditions: 25 mg/kg, p.o. It counts as in vivo, male Lewis rats. The protocol:
3. Reverse Passive Arthus Reaction
A reverse passive Arthus reaction is induced in the pleural cavity of male Lewis rats (150-200 g; fasted overnight prior to use) by the intravenous administration of bovine serum albumin (BSA; 4 mg/0.2 ml) followed 30 minutes later by the injection of rabbit anti-BSA (1 mg/2.0 ml; lyophilized IgG fraction; Organon Teknika, West Chester, Pa.) into the right pleural space under halothane anesthesia. Drugs or vehicle (0.5% Tween-80) control are administered orally in a volume of 1 ml/100 g body weight at 1 hour prior to the anti-BSA. Animals are sacrificed at either the time of peak eicosanoid production (i.e. 5 minutes after anti-BSA for immunoreactive T×B2, 10 minutes for immunoreactive LTB4, 20 minutes for immunoreactive LTC4) or at the time of peak neutrophil infiltration (4 hours after anti-BSA) by CO2 inhalation. The pleural cavity is then exposed, the fluid exudate removed by gentle vacuum aspiration and the volume of exudate is recorded. For the determination of cellular infiltration, the pleural cavity is rinsed with 3 ml of 0.1% EDTA in sterile saline, and the recovered wash is pooled with the exudate. Cell number is determined on a model ZBI Coulter counter. For determination of eicosanoid production, undiluted pleural exudate is microfuged and the supernatant is extracted with ethanol (8-10 times volume). Extracts are either stored at -20° C., or are evaporated to dryness under a stream of N2 and reconstituted in radioimmunoassay (RIA) buffer.
Eicosanoids are quantitated by RIA according to the procedure specified by the RIA kit manufacturer (Advanced Magnetics, Cambridge, MA). Briefly, 100 μl of ^3 H-labeled eicosanoid and 100 μl of specific antibody are sequentially added to 100 μl of extracted pleural exudate in BGG-phosphate buffer which contains 0.01M phosphate, 0.1% bovine gamma globulin and 0.1% sodium azide at pH 7.0. Antibody-bound eicosanoid is separated from unbound eicosanoid by the addition of 750 μl of dextran (0.4%)-coated charcoal (Norit A) containing 0.1% sodium azide. The mixture is centrifuged at 2000 RPM at 5° C. for 15 minutes to pellet the charcoal and adsorbed unbound eicosanoid. Antibody-bound labeled eicosanoid is quantitated by counting in a liquid scintillation counter, and is correlated to concentration by a standard curve.

The subject of experiment [5] is atherosclerotic lesions. The following applies: WHHL rabbits, in words; cited from earlier work.
In experiment [6] the test system is LDL. The following applies: in words; cited from earlier work.
The subject of experiment [7] is LDL. The following applies: in words; cited from earlier work. The source holds these as a separate data set.

The IC50 is the concentration that gives 50% inhibition. By inhibition is commonly meant the change of the read-out against control, counted positive when it falls. `Cc1oc(-c2ccccc2)nc1COc1ccc(CN(O)C(N)=O)cc1Cl` [Example 2, 1-3-Chloro-4-(5-methyl-2-phenyl-oxazol-4-ylmethoxy)-benzyl!-1-hydroxy-urea]: the entries for the “% Inhibition of LTB4” value in experiment [1] (pretreatment period 3 hr) and in experiment [1] (pretreatment period 6 hr) were 68% and 72%, respectively. 560 nM corresponded to half-maximal inhibition in experiment [2] (IC50). Further, in experiment [3], the inhibition at 1 µM came out at 31%.
Regarding `Cc1oc(-c2ccccc2)nc1COc1ccc(CN(O)C(N)=O)c(Cl)c1` [Example 3, 1-2-Chloro-4-(5-methyl-2-phenyl-oxazol-4-ylmethoxy)-benzyl!-1-hydroxy-urea], the “% Inhibition of LTB4” value in experiment [1] (pretreatment period 3 hr) came out at 40%. For the same molecule, in experiment [4], the “% Inhibition of LTB4 Synthesis” value is 26%. In addition, the inhibition at 10 µM in experiment [3] turned out to be 80%.
Consider `COc1cc(CN(O)C(N)=O)ccc1OCc1nc(-c2ccccc2)oc1C` [Example 4, 1-Hydroxy-1-3-methoxy-4-(5-methyl-2-phenyl-oxazol-4-ylmethoxy)-benzyl!-urea], for which the half-inhibitory concentration (IC50) in experiment [2] amounted to 810 nM. In experiment [3], the inhibition at 10 µM worked out at 81%.
For the molecule `Cc1oc(-c2ccccc2)nc1COc1ccc(CN(O)C(N)=O)cc1F` [Example 5, 1-3-Fluoro-4-(5-methyl-2-phenyl-oxazol-4-ylmethoxy)-benzyl!-1-hydroxy-urea], the results for the “% Inhibition of LTB4” value in experiment [1] (pretreatment period 3 hr) and in experiment [1] (pretreatment period 6 hr) were 66% and 68%, respectively. In addition, the “% Inhibition of LTB4 Synthesis” value in experiment [4] was found to be 28%. Further, the inhibition at 1 µM in experiment [3] worked out at 47%.
For `NC(=O)N(O)Cc1ccc(OCc2csc(-c3ccc(Cl)cc3)n2)cc1` [Example 14, 1-4-2-(4-chloro-phenyl)-thiazol-4-ylmethoxy!-benzyl!-1-hydroxy-urea], in experiment [2], the concentration for half-maximal inhibition (IC50) was determined as 1100 nM. Moreover, the inhibition at 1 µM in experiment [3] is 71%.
Take `CC(C)(Sc1cc(C(C)(C)C)c(O)c(C(C)(C)C)c1)Sc1cc(C(C)(C)C)c(O)c(C(C)(C)C)c1` [Probucol]: in experiment [5], the “inhibition of formation of atherosclerotic lesions” value is on record as “inhibit the formation of atherosclerotic lesions”. The “inhibition of cell mediated oxidative modification of LDL” value in experiment [6] was “inhibits”. In experiment [7], the “inhibition of Cu^+2 mediated oxidative modification of LDL” value is on record as “inhibits”.
